Results from US20110166123A1, “NOVEL COMPOSITIONS AND METHODS OF USE” (priority 2008, published 2011).
Where “and” joins values, the source holds several entries; their conditions need not be identical. Identical values can stand only once. Marks after values point to notes of the source that are not given here.

Experiments:
[1] = Microsomal incubation (Method 1), dog; assay type: in vitro ADME; details: dog liver microsomes; compound 10 μM, 1 mg protein/mL, NADPH 1 mM, 60 minutes at 37° C.
Experimental: (§1) Compound (10 μM) was incubated with rat, dog, cynomolgus monkey, and human liver microsomes (1 mg protein/mL) in a final volume of 1 mL in 2-mL Eppendorf tubes. The mixture containing enzymes, potassium phosphate buffer (100 mM, pH 7.4), and the compound was pre-incubated at 37° C. for 3 min. The reaction was initiated by the addition of NADPH (final concentration of 1 mM) and incubated for 60 minutes at 37° C. The reaction was terminated by the addition of 1 mL of acetonitrile. After centrifugation at 12000 rpm for 3 minutes, the supernatant was subjected to 15 minutes of concentration (N2 flow, 32° C.). The resulting final extract was transferred to clean vials and analyzed by HPLC.

[2] = Microsomal incubation (Method 1), rat; assay type: in vitro ADME; details: rat liver microsomes; compound 10 μM, 1 mg protein/mL, NADPH 1 mM, 60 minutes at 37° C.
Experimental: as §1

[3] = Hepatocyte stability (Example 36), human; details: human hepatocytes 1 million cells/mL, 37° C., 4 hours, LC-MS/MS
[4] = Microsomal incubation (Method 1), monkey; assay type: in vitro ADME; details: cynomolgus monkey liver microsomes; compound 10 μM, 1 mg protein/mL, NADPH 1 mM, 60 minutes at 37° C.
Experimental: as §1

[5] = Microsomal incubation (Method 1), human; assay type: in vitro ADME; details: human liver microsomes, compound 10 μM, 1 mg protein/mL, NADPH 1 mM, 60 minutes at 37° C.
Experimental: as §1

[6] = Hepatocyte stability (Example 36), rat; details: rat hepatocytes 1 million cells/mL, 37° C., 4 hours, LC-MS/MS
[7] = test system: human immunodeficiency virus type 1 (HIV-1); assay: microbe, parasite or virus in culture; assay type: cell-based; details: Human immunodeficiency virus 1, HeLa, 48 h, HIV-1 luciferase reporter, HeLa cells, 48 hours after infection
[8] = Hepatocytes incubation (Method 1), human; assay type: in vitro ADME; details: compound 10 μM, 37° C., 2 hrs
Experimental: (§2) Cryopreserved hepatocytes were thawed in a water bath at 37° C. and transferred to a 50-mL tube containing 45 mL of pre-warmed incubation medium (In VitroGRO HT medium). The tube was inverted 3 times to ensure resuspension of hepatocytes and centrifuged at 50 g at room temperature for 5 minutes. The supernatant was decanted without disturbing the pellet. The pellet of hepatocytes was resuspended in 1 mL of William's E medium and the viable cell counting was determined by the tryptan blue exclusion method.
(§3) The William's E medium was added to the suspension of the hepatocytes pellet to make a final density of 2 million cells/mL. Stock solution of the compound was prepared at the concentration of 1 mM and diluted to 10 μM with William's E medium. The culture plate was incubated at 37° C. under 5% carbon dioxide and 95% air atmosphere for 2 hrs. The metabolic reaction was terminated by transferring the contents of the well into a centrifuge tube containing 1 mL of 0.1% TFAA acetonitrile solution and then vortexing. After centrifugation, the supernatant was subjected to 15 minute of concentration (N2 flow, 32° C.). The resulted final extract was transferred to clean vials for HPLC analysis.

[9] = Hepatocytes incubation (Method 1), rat; assay type: in vitro ADME; details: compound 10 μM, 37° C., 2 hrs
Experimental: as §2, §3

[10] = Hepatocytes incubation (Method 1), monkey; assay type: in vitro ADME; details: compound 10 μM, 37° C., 2 hrs
Experimental: as §2, §3

[11] = CYP3A4 activity 3800 (pmol/mg protein)

For `COc1cc2c(cc1Cc1cccc(Cl)c1F)c(=O)c(C(=O)O)cn2[C@H](CO)C(C)C` [Example 30A, reference compound], the “% Remaining, Dog, Microsome” value [1] was 83.8 NA %, the “% Remaining, Rat, Microsome” value [2] was 6.7 NA % and the “% Remaining (human)” value [3] was 54%. The “% Remaining, Monkey, Microsome” value [4] was 4.1 NA %, the “% Remaining, Human, Microsome” value [5, 11] was 40.5 (3800)* NA % and the “% Remaining (rat)” value [6] was 29%.
With `COc1nc2c(cc1Cc1cccc(Cl)c1F)c(=O)c(C(=O)O)cn2[C@H](CO)C(C)C` [Example 1A, 6-(3-Chloro-2-fluoro-benzyl)-1-((S)-1-hydroxymethyl-2-methyl-propyl)-7-methoxy-4-oxo-1,4-dihydro-[1,8]naphthyridine-3-carboxylic acid] the “% Remaining, Dog, Microsome” value [1] was 102%, the “% Remaining, Rat, Microsome” value [2] was 38.1% and the “% Remaining, Monkey, Microsome” value [4] was 66.3%. For the same molecule, the “% Remaining, Human, Microsome” value [5, 11] was 101% and 96.1%, the “% Remaining, Human, Microsome” value ([5]; CYP3A4 activity 7800 (pmol/mg protein)) was 83.5% and the EC50 [7] was less than 10 nM. The “% Remaining, Human, Hepatocyte” value [8] was 89.6%, the “% Remaining, Rat, Hepatocyte” value [9] was 66.9% and the “% Remaining, Monkey, Hepatocyte” value [10] was 72.3%.
In the case of `COc1nc2c(cc1NCc1c(F)cc(F)cc1F)c(=O)c(C(=O)O)cn2[C@H](CO)C(C)(C)C` [Example 20NN, (S)-1-(1-hydroxy-3,3-dimethylbutan-2-yl)-7-methoxy-4-oxo-6-(2,4,6-trifluorobenzylamino)-1,4-dihydro-1,8-naphthyridine-3-carboxylic acid], the “% Remaining (human)” value [3] is reported as 61%, the EC50 [7] is reported as less than 10 nM and the “% Remaining (rat)” value [6] is reported as 46%.
For `Cc1nnc(C(=O)NC(C)(C)c2nc(C(=O)NCc3ccc(F)cc3)c(O)c(=O)n2C)o1` [Raltegravir, raltegravir, reference compound], the “% Remaining, Dog, Microsome” value [1] was 91.8%, the “% Remaining, Rat, Microsome” value [2] was 105% and the “% Remaining, Monkey, Microsome” value [4] was 94.7%. The “% Remaining, Human, Hepatocyte” value [8] was 32.4%, the “% Remaining, Rat, Hepatocyte” value [9] was 43.3% and the “% Remaining, Monkey, Hepatocyte” value [10] was 20.0%.
